Measurements published in BigSolDB 2.1.

c1cc(-n2c3ccccc3c3ccccc32)cc(-n2c3ccccc3c3ccccc32)c1
solubility (mole fraction)
Conditions	273.15 K	283.15 K	293.15 K	303.15 K	313.15 K	323.15 K
in DMSO	–	–	0.00436	0.00443	0.00472	0.00505
in NMP	–	0.062	0.0702	0.0761	0.0801	–
in THF	–	0.0507	0.0528	0.0598	0.0792	–
in acetonitrile	–	0.000243	0.000311	0.000363	0.000483	–
in dichloromethane	0.0949	0.107	0.112	0.139	–	–
in ethanol	–	0.000448	0.000561	0.000802	0.00109	–
in ethyl acetate	–	0.00426	0.00599	0.00827	0.00879	–
in isopropanol	–	4.55e-05	5.9e-05	6.95e-05	0.00011	–
in methanol	–	4.36e-05	6.14e-05	9.66e-05	0.000108	–
in n-butanol	–	0.000122	0.00017	0.000217	0.000318	–
in n-hexane	–	0.000183	0.000259	0.000342	0.000381	–
in toluene	–	0.0263	0.0316	0.0336	0.0445	–
